pIC50: −log10 of the molar value. Oligonucleotides are written 5' to 3', each unit as a sugar letter and its base; * is a phosphorothioate linkage, no mark a phosphodiester; rarer units and linkages stand in square brackets, end groups in braces. Plain capitals give the bases only. k = constrained ethyl (cEt); d = 2'-deoxy (DNA)
Assays:
[1] = tested on: AR mRNA; assay: Dose-dependent antisense inhibition of human AR in HuVEC cells (electroporation, qRT-PCR RTS3559, IC50); format: cell-based
Procedure, shortened: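 HuVEC cells dosed with antisense oligonucleotides by electroporation and treated approximately 16 hours. AR mRNA quantified by real-time qPCR with primer probe set RTS3559 and normalised to total RNA by RIBOGREEN; IC50 from dose-response.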

[2] = tested on: AR mRNA; assay: Antisense inhibition of human AR in HuVEC cells, single concentration (electroporation, qRT-PCR RTS3559); format: cell-based
Procedure, shortened: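 AR mRNA levels were measured with human primer-probe set RTS3559 and adjusted for total RNA (RIBOGREEN). Cells were HuVEC, with each antisense oligonucleotide delivered by electroporation at one concentration.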

## 549458 (kG*kT*kT*dG*dA*dT*dT*dT*dA*dA*dT*dG*dG*kT*kT*kG) [compound 549458]
[1]; 31.25 nM, HuVEC, ~16 h, Table 6
  percent inhibition of AR: 15%
[1]; 31.25 nM, HuVEC, ~16 h, Table 8
  percent inhibition of AR: 30%
[1]; 31.25 nM, HuVEC, ~16 h, Table 14
  percent inhibition of AR: 0%
[1]; 46.9 nM, HuVEC, ~16 h, Table 15
  percent inhibition of AR: 15%
[1]; 55.6 nM, HuVEC, ~16 h, Table 4
  percent inhibition of AR: 48%
[1]; 62.5 nM, HuVEC, ~16 h, Table 6
  percent inhibition of AR: 25%
[1]; 62.5 nM, HuVEC, ~16 h, Table 8
  percent inhibition of AR: 36%
[1]; 62.5 nM, HuVEC, ~16 h, Table 10
  percent inhibition of AR: 25%
[1]; 62.5 nM, HuVEC, ~16 h, Table 11
  percent inhibition of AR: 16%
[1]; 62.5 nM, HuVEC, ~16 h, Table 12
  percent inhibition of AR: 19%
[1]; 62.5 nM, HuVEC, ~16 h, Table 14
  percent inhibition of AR: 19%
[1]; 125.0 nM, HuVEC, ~16 h, Table 6
  percent inhibition of AR: 47%
[1]; 125.0 nM, HuVEC, ~16 h, Table 8
  percent inhibition of AR: 54%
[1]; 125.0 nM, HuVEC, ~16 h, Table 10
  percent inhibition of AR: 46%
[1]; 125.0 nM, HuVEC, ~16 h, Table 11
  percent inhibition of AR: 22%
[1]; 125.0 nM, HuVEC, ~16 h, Table 12
  percent inhibition of AR: 22%
[1]; 125.0 nM, HuVEC, ~16 h, Table 14
  percent inhibition of AR: 40%
[1]; 166.7 nM, HuVEC, ~16 h, Table 4
  percent inhibition of AR: 84%
[1]; 187.5 nM, HuVEC, ~16 h, Table 15
  percent inhibition of AR: 50%
[1]; 500.0 nM, HuVEC, ~16 h, Table 4
  percent inhibition of AR: 97%
[1]; 500.0 nM, HuVEC, ~16 h, Table 6
  percent inhibition of AR: 88%
[1]; 500.0 nM, HuVEC, ~16 h, Table 8
  percent inhibition of AR: 85%
[1]; 500.0 nM, HuVEC, ~16 h, Table 10
  percent inhibition of AR: 64%
[1]; 500.0 nM, HuVEC, ~16 h, Table 11
  percent inhibition of AR: 64%
[1]; 500.0 nM, HuVEC, ~16 h, Table 12
  percent inhibition of AR: 38%
[1]; 500.0 nM, HuVEC, ~16 h, Table 14
  percent inhibition of AR: 74%
[1]; 750.0 nM, HuVEC, ~16 h, Table 15
  percent inhibition of AR: 85%
[1]; 1000.0 nM, HuVEC, ~16 h, Table 6
  percent inhibition of AR: 93%
[1]; 1000.0 nM, HuVEC, ~16 h, Table 8
  percent inhibition of AR: 90%
[1]; 1000.0 nM, HuVEC, ~16 h, Table 10
  percent inhibition of AR: 78%
[1]; 1000.0 nM, HuVEC, ~16 h, Table 11
  percent inhibition of AR: 74%
[1]; 1000.0 nM, HuVEC, ~16 h, Table 12
  percent inhibition of AR: 71%
[1]; 1000.0 nM, HuVEC, ~16 h, Table 14
  percent inhibition of AR: 90%
[1]; 1500.0 nM, HuVEC, ~16 h, Table 4
  percent inhibition of AR: 98%
[1]; 3000.0 nM, HuVEC, ~16 h, Table 15
  percent inhibition of AR: 96%
[1]; HuVEC cells, electroporation
  pIC50: 6.72
[1]; HuVEC cells, electroporation, 46.9 nM ASO
  inhibition of AR mRNA at 46.9 nM: 15%
[1]; HuVEC cells, electroporation, 187.5 nM ASO
  inhibition of AR mRNA at 187.5 nM: 50%
[1]; HuVEC cells, electroporation, 750.0 nM ASO
  inhibition of AR mRNA at 750.0 nM: 85%
[1]; HuVEC cells, electroporation, 3000.0 nM ASO
  inhibition of AR mRNA at 3000.0 nM: 96%
[1]; HuVEC, ~16 h, Table 4
  pIC50: 7.24
[1]; HuVEC, ~16 h, Table 6
  pIC50: 7.00
[1]; HuVEC, ~16 h, Table 8
  pIC50: 7.00
[1]; HuVEC, ~16 h, Table 10
  pIC50: 6.69
[1]; HuVEC, ~16 h, Table 11
  pIC50: 6.49
[1]; HuVEC, ~16 h, Table 12
  pIC50: 6.33
[1]; HuVEC, ~16 h, Table 14
  pIC50: 6.71
[1]; HuVEC, ~16 h, Table 15
  pIC50: 6.72
[1]; Table 29, 46.9 nM, HuVEC, electroporation, approximately 16 hours
  percent inhibition of AR, 46.9 nM: 21%
[1]; Table 29, 187.5 nM, HuVEC, electroporation, approximately 16 hours
  percent inhibition of AR, 187.5 nM: 72%
[1]; Table 29, 750.0 nM, HuVEC, electroporation, approximately 16 hours
  percent inhibition of AR, 750.0 nM: 91%
[1]; Table 29, 3000.0 nM, HuVEC, electroporation, approximately 16 hours
  percent inhibition of AR, 3000.0 nM: 97%
[1]; Table 29, HuVEC, electroporation, approximately 16 hours
  pIC50: 6.96
[1]; Table 30, 46.9 nM, HuVEC, electroporation, approximately 16 hours
  percent inhibition of AR, 46.9 nM: 22%
[1]; Table 30, 187.5 nM, HuVEC, electroporation, approximately 16 hours
  percent inhibition of AR, 187.5 nM: 62%
[1]; Table 30, 750.0 nM, HuVEC, electroporation, approximately 16 hours
  percent inhibition of AR, 750.0 nM: 92%
[1]; Table 30, 3000.0 nM, HuVEC, electroporation, approximately 16 hours
  percent inhibition of AR, 3000.0 nM: 97%
[1]; Table 30, HuVEC, electroporation, approximately 16 hours
  pIC50: 6.89
[1]; Table 31, 46.9 nM, HuVEC, electroporation, approximately 16 hours
  percent inhibition of AR, 46.9 nM: 24%
[1]; Table 31, 187.5 nM, HuVEC, electroporation, approximately 16 hours
  percent inhibition of AR, 187.5 nM: 59%
[1]; Table 31, 750.0 nM, HuVEC, electroporation, approximately 16 hours
  percent inhibition of AR, 750.0 nM: 92%
[1]; Table 31, 3000.0 nM, HuVEC, electroporation, approximately 16 hours
  percent inhibition of AR, 3000.0 nM: 98%
[1]; Table 31, HuVEC, electroporation, approximately 16 hours
  pIC50: 6.89
[1]; Table 32, 46.9 nM, HuVEC, electroporation, approximately 16 hours
  percent inhibition of AR, 46.9 nM: 19%
[1]; Table 32, 187.5 nM, HuVEC, electroporation, approximately 16 hours
  percent inhibition of AR, 187.5 nM: 58%
[1]; Table 32, 750.0 nM, HuVEC, electroporation, approximately 16 hours
  percent inhibition of AR, 750.0 nM: 89%
[1]; Table 32, 3000.0 nM, HuVEC, electroporation, approximately 16 hours
  percent inhibition of AR, 3000.0 nM: 96%
[1]; Table 32, HuVEC, electroporation, approximately 16 hours
  pIC50: 6.82
[1]; Table 33, 46.9 nM, HuVEC, electroporation, approximately 16 hours
  percent inhibition of AR, 46.9 nM: 21%
[1]; Table 33, 187.5 nM, HuVEC, electroporation, approximately 16 hours
  percent inhibition of AR, 187.5 nM: 61%
[1]; Table 33, 750.0 nM, HuVEC, electroporation, approximately 16 hours
  percent inhibition of AR, 750.0 nM: 90%
[1]; Table 33, 3000.0 nM, HuVEC, electroporation, approximately 16 hours
  percent inhibition of AR, 3000.0 nM: 96%
[1]; Table 33, HuVEC, electroporation, approximately 16 hours
  pIC50: 6.89
[1]; Table 34, 46.9 nM, HuVEC, electroporation, approximately 16 hours
  percent inhibition of AR, 46.9 nM: 14%
[1]; Table 34, 187.5 nM, HuVEC, electroporation, approximately 16 hours
  percent inhibition of AR, 187.5 nM: 53%
[1]; Table 34, 750.0 nM, HuVEC, electroporation, approximately 16 hours
  percent inhibition of AR, 750.0 nM: 84%
[1]; Table 34, 3000.0 nM, HuVEC, electroporation, approximately 16 hours
  percent inhibition of AR, 3000.0 nM: 95%
[1]; Table 34, HuVEC, electroporation, approximately 16 hours
  pIC50: 6.74
[1]; Table 35, 46.9 nM, HuVEC, electroporation, approximately 16 hours
  percent inhibition of AR, 46.9 nM: 13%
[1]; Table 35, 187.5 nM, HuVEC, electroporation, approximately 16 hours
  percent inhibition of AR, 187.5 nM: 49%
[1]; Table 35, 750.0 nM, HuVEC, electroporation, approximately 16 hours
  percent inhibition of AR, 750.0 nM: 84%
[1]; Table 35, 3000.0 nM, HuVEC, electroporation, approximately 16 hours
  percent inhibition of AR, 3000.0 nM: 91%
[1]; Table 35, HuVEC, electroporation, approximately 16 hours
  pIC50: 6.72
[1]; Table 36, 46.9 nM, HuVEC, electroporation, approximately 16 hours
  percent inhibition of AR, 46.9 nM: 1%
[1]; Table 36, 187.5 nM, HuVEC, electroporation, approximately 16 hours
  percent inhibition of AR, 187.5 nM: 51%
[1]; Table 36, 750.0 nM, HuVEC, electroporation, approximately 16 hours
  percent inhibition of AR, 750.0 nM: 83%
[1]; Table 36, 3000.0 nM, HuVEC, electroporation, approximately 16 hours
  percent inhibition of AR, 3000.0 nM: 96%
[1]; Table 36, HuVEC, electroporation, approximately 16 hours
  pIC50: 6.64
[2]; 250 nM ASO, ~24 h, Table 7
  % inhibition: 71%
[2]; 500 nM ASO, electroporation, ~24 h, Table 2
  % inhibition: 95%
[2]; 500 nM ASO, ~24 h, Table 5
  % inhibition: 94%
[2]; 500 nM ASO, ~24 h, Table 16
  % inhibition: 60%
[2]; 500 nM ASO, ~24 h, Table 17
  % inhibition: 46%
[2]; 500 nM ASO, ~24 h, Table 18
  % inhibition: 48%
[2]; 1,000 nM ASO, ~24 h, Table 13
  % inhibition: 87%
[2]; 1,000 nM ASO, ~24 h, Table 26
  % inhibition: 79%
[2]; Table 19, 500 nM oligonucleotide, electroporation, approximately 24 hours, relative to untreated control
  % inhibition: 50%
[2]; Table 20, 500 nM oligonucleotide, electroporation, approximately 24 hours, relative to untreated control
  % inhibition: 54%
[2]; Table 21, 500 nM oligonucleotide, electroporation, approximately 24 hours, relative to untreated control
  % inhibition: 47%
[2]; Table 22, 500 nM oligonucleotide, electroporation, approximately 24 hours, relative to untreated control
  % inhibition: 39%
[2]; Table 23, 500 nM oligonucleotide, electroporation, approximately 24 hours, relative to untreated control
  % inhibition: 51%
[2]; Table 24, 1,000 nM oligonucleotide, electroporation, approximately 24 hours, relative to untreated control
  % inhibition: 88%
[2]; Table 25, 1,000 nM oligonucleotide, electroporation, approximately 24 hours, relative to untreated control
  % inhibition: 76%
[2]; Table 27, 1,000 nM oligonucleotide, electroporation, approximately 24 hours, relative to untreated control
  % inhibition: 76%
[2]; Table 28, 1,000 nM oligonucleotide, electroporation, approximately 24 hours, relative to untreated control
  % inhibition: 65%
